Test results reported in patent publication US7741355B2, “Small-molecule modulators of TRP-p8 activity” (Dendreon Corporation, priority 2006, dated 2010).

Each compound was assayed against T1, Trp-p8 (Homo sapiens, UniProt Q7Z2W7, T58I) (assay: ATP viability assay with CHO/Trp-p8 cells at 37° C.). Settings: Table 1, Formula I-A; CHO/Trp-p8 cells, 24-26 hours at 37° C., 50% reduction in relative cell viability; read-out: EC50.
T1 construct: expressed in transfected cells; host or cells: CHO (Chinese Hamster Ovary) cells
T1 sequence (Q7Z2W7 whole entry T58I): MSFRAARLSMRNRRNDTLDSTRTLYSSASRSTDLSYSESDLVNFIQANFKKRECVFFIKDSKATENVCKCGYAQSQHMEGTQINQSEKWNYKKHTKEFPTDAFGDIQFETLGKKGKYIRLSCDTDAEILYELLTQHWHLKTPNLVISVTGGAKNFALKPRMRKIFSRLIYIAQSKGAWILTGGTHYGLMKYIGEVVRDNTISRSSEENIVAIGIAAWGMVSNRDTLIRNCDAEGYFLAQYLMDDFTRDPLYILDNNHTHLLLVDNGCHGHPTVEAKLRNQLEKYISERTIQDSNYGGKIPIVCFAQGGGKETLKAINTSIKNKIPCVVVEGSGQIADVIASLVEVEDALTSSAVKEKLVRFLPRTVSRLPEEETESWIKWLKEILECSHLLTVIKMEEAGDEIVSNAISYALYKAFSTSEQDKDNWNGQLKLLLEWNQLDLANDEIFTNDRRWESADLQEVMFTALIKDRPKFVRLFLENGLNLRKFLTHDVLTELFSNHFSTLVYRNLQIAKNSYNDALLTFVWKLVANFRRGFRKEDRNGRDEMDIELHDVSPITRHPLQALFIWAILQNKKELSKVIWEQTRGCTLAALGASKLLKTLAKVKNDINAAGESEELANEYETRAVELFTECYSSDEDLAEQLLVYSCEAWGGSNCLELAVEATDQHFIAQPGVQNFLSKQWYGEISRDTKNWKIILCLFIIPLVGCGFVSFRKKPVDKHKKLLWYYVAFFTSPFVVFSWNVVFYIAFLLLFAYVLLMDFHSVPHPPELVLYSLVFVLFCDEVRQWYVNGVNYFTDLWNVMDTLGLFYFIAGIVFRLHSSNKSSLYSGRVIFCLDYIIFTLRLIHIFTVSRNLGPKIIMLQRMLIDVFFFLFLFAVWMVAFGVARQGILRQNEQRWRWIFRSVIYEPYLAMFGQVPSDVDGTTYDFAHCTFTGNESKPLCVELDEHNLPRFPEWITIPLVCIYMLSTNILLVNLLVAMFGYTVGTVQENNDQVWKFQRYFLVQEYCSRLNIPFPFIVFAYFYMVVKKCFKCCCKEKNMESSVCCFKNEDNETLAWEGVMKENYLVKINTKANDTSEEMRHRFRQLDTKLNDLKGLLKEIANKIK
Format: cell-based
Description: Human Trp-p8 transfected CHO cells (referred to herein as CHO/Trp-p8) were generated for use in experiments of the present invention. Expression of Trp-p8 polypeptide in this transfectant and the absence of any endogenous expression in the non-transfected CHO was confirmed by western blot and immunofluorescence using a Trp-p8 specific antibody (GS2.20) as well as the calcium flux assay with Icilin (1-[2-hydroxyphenyl]-4-[3-nitrophenyl]-1,2,3,6-tetrahydropyrimidine-2-one) and menthol (2-isopropyl-5-methyl-cyclohexanol). Non-transfected CHO cells were used to establish the specificity of the effects of the compounds observed with CHO/Trp-p8.
This Example discloses an ATP viability assay suitable for screening for effective Trp-p8 agonists. The ATP viability assay described herein employs CHO cells expressing an exogenous Trp-p8 cDNA. This example further establishes that Trp-p8 agonists of the present invention are effective in decreasing the viability of Trp-p8 expressing cells.
The concentration of intracellular ATP declines very rapidly when metabolically active cells undergo necrosis and/or apoptosis. The ATP concentration and consequently the relative cell viability can be measured by established methods using commercially available reagents. In the agonist screening methodology disclosed herein, a compound that specifically decreases the viability of CHO/Trp-p8 cells is referred to as an agonist.
As a primary screen for efficacy and specificity for agonists, both the non-transfected CHO and CHO/Trp-p8 cells were exposed to 1 or 10 μM of test compounds in 1% dimethylsulfoxide (DMSO) or 1% DMSO (control) in a 96-well black walled, black-bottomed, cell-culture treated plate. DMSO was the solvent for all of the compounds tested. After 24-26 hours at 37° C., the cells were lysed and ATP concentration determined via a chemiluminescence assay using a commercially available reagent kit—Cell Titer-Glo (Promega; Madison, Wis.). […] (EC50 is defined herein as the agonist concentration at which there is a 50% reduction in relative cell viability).
With `COc1ccc(NC(=O)[C@@H]2C[C@H](C)CC[C@H]2C(C)C)c(C(=O)NCCN)c1` [Compound 5] the EC50 was < 0.02 µM. Work on `CC(C)[C@@H]1CC[C@@H](C)C[C@H]1C(=O)Nc1cc2ccccc2cc1NCCN` [Compound 8] yielded an EC50 of 0.021 to 0.05 µM. With `COc1ccc(NC(=O)[C@@H]2C[C@H](C)CC[C@H]2C(C)C)c(NC(=O)[C@@H](C)N)c1` [Compound 1, 2-Isopropyl-5-methyl-cyclohexanecarboxylic acid-[2-(2-aminopropionylamino)-4-methoxylphenyl]amide] the EC50 was < 0.02 µM. For `CC(C)[C@@H]1CC[C@@H](C)C[C@H]1C(=O)Nc1ccc2ccccc2c1OCCN` [Compound 3], the EC50 was < 0.02 µM.

Same assay, conditions: Table 2, Formula I-B; CHO/Trp-p8 cells, 24-26 hours at 37° C., 50% reduction in relative cell viability; read-out: EC50
With `CC(C)[C@@H]1CC[C@@H](C)C[C@H]1C(=O)Nc1cc(-c2ccccc2)nn1CCN` [Compound 16] the EC50 was < 0.02 µM. Work on `COC(=O)c1ccc(-c2cc(NC(=O)[C@@H]3C[C@H](C)CC[C@H]3C(C)C)n(CCN)n2)cc1` [Compound 25] yielded an EC50 of 0.051 to 0.1 µM. `CC(C)[C@@H]1CC[C@@H](C)C[C@H]1C(=O)Nc1cc(-c2ccc(N)cc2)nn1CCN` [Compound 19] showed an EC50 of 0.021 to 0.05 µM. Work on `CC(C)[C@@H]1CC[C@@H](C)C[C@H]1C(=O)Nc1cc(-c2cccc(N)c2)nn1CCN` [Compound 26] yielded an EC50 of 0.051 to 0.1 µM. With `CC(C)[C@@H]1CC[C@@H](C)C[C@H]1C(=O)Nc1cc(-c2ccccc2)nn1CCCN` [Compound 18] the EC50 was < 0.02 µM. `CC(C)[C@@H]1CC[C@@H](C)C[C@H]1C(=O)Nc1cc(-c2ccccc2)nn1C[C@@H](C)N` [Compound 15] was tested, and the EC50 was < 0.02 µM.

Same assay, conditions: Table 3, Formula I-C; CHO/Trp-p8 cells, 24-26 hours at 37° C., 50% reduction in relative cell viability; read-out: EC50
Work on `CC(C)[C@@H]1CC[C@@H](C)C[C@H]1C(=O)NCC(NCCN)c1ccccc1` (some centres unmarked) [Compound 32] yielded an EC50 of 0.051 to 0.1 µM.

Same assay, conditions: Table 5, Formula I-E; CHO/Trp-p8 cells, 24-26 hours at 37° C., 50% reduction in relative cell viability; read-out: EC50
For `CCOc1ccc2c(c1)n(CCN)c(=O)n2C(=O)[C@@H]1C[C@H](C)CC[C@H]1C(C)C` (stereo in doubt) [Compound 38, 3-(2-Aminoethyl)-5-ethoxy-1-(2-isopropyl-5-methylcyclohexanecarbonyl)-1,3-dihydro-benzoimidazol-2-one], the EC50 was < 0.02 µM. `CC(C)[C@@H]1CC[C@@H](C)C[C@H]1C(=O)n1c(=O)n(CCN)c2cc(C(=O)Nc3cccnc3)ccc21` (stereo in doubt) [Compound 48, 3-(2-Amino-ethyl)-1-(2-isopropyl-5-methylcyclohexanecarbonyl)-2-oxo-2,3-dihydro-1H-benzoimidazole-5-carboxylic acid pyridine-3-yl amide] was tested, and the EC50 was < 0.02 µM. `CC(C)[C@@H]1CC[C@@H](C)C[C@H]1C(=O)n1c(=O)n(CCN)c2cc(C(=O)NCc3ccccc3)ccc21` [Compound 63] showed an EC50 of 0.021 to 0.05 µM. In the case of `CC(C)[C@@H]1CC[C@@H](C)C[C@H]1C(=O)n1c(=O)n(CCN)c2cc(OCCCO)ccc21` [Compound 37, 3-(2-aminoethyl)-5-(3-hydroxypropoxy)-1-(2-isopropyl-5-methylcyclohexanecarbonyl)-1,3-dihydro-benzoimidazol-2-one], the EC50 is reported as < 0.02 µM. Compound `CC(C)[C@@H]1CC[C@@H](C)C[C@H]1C(=O)n1c(=O)n(CCN)c2ccc(C(F)(F)F)cc21` [Compound 61] has an EC50 of 0.021 to 0.05 µM. `CC(C)[C@@H]1CC[C@@H](C)C[C@H]1C(=O)n1c(=O)n(CCN)c2cnccc21` [Compound 54] gave an EC50 of 0.021 to 0.05 µM. Work on `CC(C)[C@@H]1CC[C@@H](C)C[C@H]1C(=O)n1c(=O)n(CCCCN)c2ccccc21` [Compound 76] yielded an EC50 of 0.051 to 0.1 µM. With `CC(C)[C@@H]1CC[C@@H](C)C[C@H]1C(=O)n1c(=O)n(CCN)c2cc(C(N)=O)ccc21` [Compound 41, 3-(2-Amino-ethyl)-1-(2-isopropyl-5-methyl-cyclohexanecarbonyl)-2-oxo-2,3-dihydro-1H-benzoimidazole-5-carboxylic acid amide] the EC50 was < 0.02 µM. `CC(C)[C@@H]1CC[C@@H](C)C[C@H]1C(=O)n1c(=O)n(CCN)c2ncccc21` [Compound 57] was tested, and the EC50 was 0.021 to 0.05 µM. Compound `CC(C)[C@@H]1CC[C@@H](C)C[C@H]1C(=O)n1c(=O)n(CCN)c2cc(C(=O)Nc3ccncc3)ccc21` [Compound 56] has an EC50 of 0.021 to 0.05 µM. In the case of `CC(C)[C@@H]1CC[C@@H](C)C[C@H]1C(=O)n1c(=O)n(CCCN)c2ccccc21` [Compound 58], the EC50 is reported as 0.021 to 0.05 µM. In the case of `CC(C)[C@@H]1CC[C@@H](C)C[C@H]1C(=O)n1c(=O)n(CCN)c2cc3ccccc3cc21` [Compound 51], the EC50 is reported as < 0.02 µM.
